Source: patent US20110091587A1, “PHASE II DETOXIFICATION AND ANTIOXIDANT ACTIVITY” (JOSLIN DIABETES CENTER, INC., priority 2007, published 2011)

Tested on: GCS-1::GFP
Test: GCS-1::GFP reporter expression in the intestine of transgenic worms
Type: in vivo, C. elegans
Source text: A nucleic acid encoding the GCS-1 promoter (as described in An and Blackwell, 2003, Genes & Dev., 17, 1882-1893) was fused with a sequence encoding green fluorescent protein (GFP) to prepare a reporter construct (gcs-1::GFP) using standard molecular biology techniques. This fusion construct gene was transferred into C. elegans (An and Blackwell, 2003, Genes & Dev., 17, 1882-1893; Mello, et al., EMBO J. 1991. 10(12):3959-70), and the obtained transformed C. elegans were used in the experiment. Under normal, less oxidative stress conditions, the gcs-1::GFP construct is expressed in the pharynx area and ASI of C. elegans, where fluorescence emission of GFP can be measured.
Experiments were conducted to study the influence of the various extracts prepared in Example 1 on expression of the GCS-1::GFP reporter construct (described in Example 2) in C. elegans, following the method according to An and Blackwell, 2003, Genes & Dev., 17, 1882-1893.
Before each experiment, approximately 20 L4 stage worms carrying the GCS-1::GFP reporter construct transgene were picked to NGM plates (a type of agar media, see Brenner, Genetics, 1974 May; 77(1):71-94), containing OP50 bacteria (an E. coli strain, food for C. elegans), and were allowed to grow for 2 to 3 days. The worms were transferred together with a saline medium (M9) for treatment with the test materials to a microcentrifuge tube by flooding the NGM plate surface with the saline medium (M9). The microcentrifuge tube was then centrifuged, and a supernatant was removed. The same procedure was repeated again to wash the worms. This washing removed the bacteria which had been given as food.
Once the worms were washed, they were added for incubation in the specified test materials at the specified concentrations for the following amounts of time. Initially, incubation time was 30 minutes, and was later extended to include 60, 90, and 120 minutes. After treatment for said given times, the worms were washed in M9 at least twice, transferred back to an NGM plate containing bacteria, and allowed to recover for about 30 minutes. The worms were then mounted on slides, and scored for GFP expression levels under a microscope. GFP expression levels in the intestines of each worm were evaluated based on three scores; high, medium, and low expressions. A high score was given for worms with GFP expression through out the intestine. GFP expression midway up the intestine was scored medium. A low score was given to worms with very little or no GFP expression in their intestine. […]

[1] = comparison of GCS-1::GFP, Δ2 and Δ2mut3 worms

## C[S+]([O-])CCCCN=C=S (stereo not shown) [sulforaphane]
[1]
  regulation of GCS-1::GFP expression by SKN-1: not partially regulated by SKN-1
  site of GCS-1::GFP expression: about half of GCS-1::GFP expression was seen in the pharynx
Sulforaphane 1 mg/mL, after 30, 60 or 90 minutes of incubation
  effect on GCS-1::GFP expression: no effect was seen
Sulforaphane 1 mg/mL, longer incubation
  incubation time at which effect was first seen: 6 h
